US8329755B2, “Methods for treating retroviral infections” (Roche Palo Alto LLC, priority 2004, dated 2012)

Row | melting point [°C] | Compound
1 | 211.6 to 214.6 | Cc1cc(S(N)(=O)=O)ccc1NC(=O)Cc1ccc(Cl)c(Oc2cc(C#N)cc(C(F)(F)F)c2)c1 [Compound I-89, 2-[4-Chloro-3-(3-cyano-5-trifluoromethyl-phenoxy)-phenyl]-N-(2-methyl-4-sulfamoyl-phenyl)-acetamide]
2 | 198.2 to 200.6 | CCC(=O)N(C)S(=O)(=O)c1ccc(NC(=O)Cc2ccc(Cl)c(Oc3cc(Cl)cc(C#N)c3)c2F)c(Cl)c1 [Compound I-162, 2-[4-Chloro-3-(3-chloro-5-cyano-phenoxy)-2-fluoro-phenyl]-N-[2-chloro-4-(methyl-propionyl-sulfamoyl)-phenyl]-acetamide]
3 | 230 to 232.2 | Cc1cc(S(N)(=O)=O)ccc1NC(=O)Cc1ccc(C)c(Oc2cc(Cl)cc(C#N)c2)c1F [Compound I-74, 2-[3-(3-Chloro-5-cyano-phenoxy)-2-fluoro-4-methyl-phenyl]-N-(2-methyl-4-sulfamoyl-phenyl)-acetamide]
4 | 216.1 to 221.3 | CCc1ccc(CC(=O)Nc2ccc(S(N)(=O)=O)cc2)cc1Oc1cc(Cl)cc(Br)c1 [Compound I-22, 2-[3-(3-Bromo-5-chloro-phenoxy)-4-ethyl-phenyl]-N-(4-sulfamoyl-phenyl)-acetamide]
5 | 169 to 180.3 | Cc1cc(S(=O)(=O)NC(=O)[C@@H](N)C(C)C)ccc1NC(=O)Cc1ccc(Cl)c(Oc2cc(Cl)cc(C#N)c2)c1F.Cl
6 | 211 to 213.1 | Cc1cc(CC(=O)Nc2ccc(S(N)(=O)=O)cc2)cc(C(=O)c2cccc(Cl)c2)c1 [Compound I-261, 2-[3-(3-Chloro-benzoyl)-5-methyl-phenyl]-N-(4-sulfamoyl-phenyl)-acetamide]
7 | 178 to 179.5 | N#Cc1cc(Cl)cc(Oc2c(Cl)ccc(CC(=O)Nc3ccc(S(=O)(=O)NC(=O)CO)cc3Cl)c2F)c1.[Na]
8 | 155.4 to 157.5 | CCC(=O)NS(=O)(=O)c1ccc(NC(=O)Cc2ccc(Cl)c(Oc3cc(Cl)cc(C#N)c3)c2F)c(Cl)c1.[Na]
9 | 172.2 to 173.4 | Cc1cc(S(=O)(=O)NCC(C)O)ccc1NC(=O)Cc1ccc(C)c(Oc2cc(Cl)cc(C#N)c2)c1 (stereo not drawn) [Compound I-129, 2-[3-(3-Chloro-5-cyano-phenoxy)-4-methyl-phenyl]-N-[4-(2-hydroxy-propylsulfamoyl)-2-methyl-phenyl]-acetamide]
10 | 149.1 to 151.3 | CCc1ccc(CC(=O)Nc2ccc(S(=O)(=O)NC)cc2)cc1Oc1cc(Cl)cc(C#N)c1 [Compound I-48, 2-[3-(3-Chloro-5-cyano-phenoxy)-4-ethyl-phenyl]-N-(4-methylsulfamoyl-phenyl)-acetamide]
11 | 175 to 177.2 | COc1ccc(CC(=O)Nc2ccc(S(N)(=O)=O)cc2C)cc1Oc1cc(C#N)cc(C(F)F)c1 [Compound I-93, 2-[3-(3-Cyano-5-difluoromethyl-phenoxy)-4-methoxy-phenyl]-N-(2-methyl-4-sulfamoyl-phenyl)-acetamide]
12 | 212.9 to 214.4 | Cc1cc(CC(=O)Nc2ccc(S(N)(=O)=O)cc2Cl)cc(Oc2cc(C#N)ccc2Cl)c1 [Compound I-148, 2-[3-(2-Chloro-5-cyano-phenoxy)-5-methyl-phenyl]-N-(2-chloro-4-sulfamoyl-phenyl)-acetamide]
13 | 218.9 to 220 | Cc1cc(S(N)(=O)=O)ccc1NC(=O)Cc1cc(Oc2cccc(C#N)c2)c2occc2c1 [Compound I-145, 2-[7-(3-Cyano-phenoxy)-benzofuran-5-yl]-N-(2-methyl-4-sulfamoyl-phenyl)-acetamide]
14 | 119.7 to 123.3 | CCc1ccc(CC(=O)Nc2ccc(S(N)(=O)=O)cc2)cc1Oc1cc(C#N)cc(C#N)c1Cl [Compound I-52, 2-[3-(2-Chloro-3,5-dicyano-phenoxy)-4-ethyl-phenyl]-N-(4-sulfamoyl-phenyl)-acetamide]
15 | 223.3 to 225 | Cl.N#Cc1cc(Cl)cc(Oc2c(Cl)ccc(CC(=O)Nc3ccc(S(=O)(=O)NC(=O)CN4CCOCC4)cc3Cl)c2F)c1
16 | 146.3 to 147.1 | CCc1ccc(CC(=O)Nc2ccccc2Cl)cc1Oc1cc(Cl)ccc1Cl [Compound I-21, N-(2-Chloro-phenyl)-2-[3-(2,5-dichloro-phenoxy)-4-ethyl-phenyl]-acetamide]
17 | 84.3 to 85.6 | Cc1cc(N2CCCCS2(=O)=O)ccc1NC(=O)Cc1ccc(C)c(Oc2cc(Cl)cc(C#N)c2)c1 [Compound I-158, 2-[3-(3-Chloro-5-cyano-phenoxy)-4-methyl-phenyl]-N-[4-(1,1-dioxo-1λ^6-[1,2]thiazinan-2-yl)-2-methyl-phenyl]-acetamide]
18 | 186.3 to 189.7 | COc1ccc(CC(=O)Nc2ccc(S(N)(=O)=O)cc2Cl)cc1Oc1cc(Cl)cc(C#N)c1 [Compound I-64, 2-[3-(3-Chloro-5-cyano-phenoxy)-4-methoxy-phenyl]-N-(2-chloro-4-sulfamoyl-phenyl)-acetamide]

Row | melting point [°C] | Compound
19 | 195.1 to 197.7 | Cc1cc(S(=O)(=O)NC2CCC(O)CC2)ccc1NC(=O)Cc1ccc(C)c(Oc2cc(Cl)cc(C#N)c2)c1 (stereo not drawn) [Compound I-121, 2-[3-(3-Chloro-5-cyano-phenoxy)-4-methyl-phenyl]-N-[4-(4-hydroxy-cyclohexylsulfamoyl)-2-methyl-phenyl]-acetamide]
20 | 184.8 to 186 | Cc1cc(CC(=O)Nc2ccc(S(N)(=O)=O)cc2C)cc(Oc2cc(Cl)cc(C#N)c2)c1 [Compound I-142, 2-[3-(3-Chloro-5-cyano-phenoxy)-5-methyl-phenyl]-N-(2-methyl-4-sulfamoyl-phenyl)-acetamide]
21 | 194 to 194.9 | Cc1ccc(CC(=O)Nc2ccc(S(N)(=O)=O)cc2Cl)cc1Oc1cc(Cl)cc(C#N)c1 [Compound I-123, 2-[3-(3-Chloro-5-cyano-phenoxy)-4-methyl-phenyl]-N-(2-chloro-4-sulfamoyl-phenyl)-acetamide]
22 | 197.2 to 198.1 | O=C(Cc1ccc(Cl)c(C(=O)c2cc(Cl)cc(Cl)c2)c1)Nc1ccccc1Cl [Compound I-247, 2-[4-Chloro-3-(3,5-dichloro-benzoyl)-phenyl]-N-(2-chloro-phenyl)-acetamide]
23 | 184 to 184.8 | Cc1cc(N(C)S(C)(=O)=O)ccc1NC(=O)Cc1ccc(C)c(Oc2cc(Cl)cc(C#N)c2)c1 [Compound I-238, 2-[3-(3-Chloro-5-cyano-phenoxy)-4-methyl-phenyl]-N-[4-(methanesulfonyl-methyl-amino)-2-methyl-phenyl]-acetamide]
24 | 214.6 to 216.4 | COc1ccc(CC(=O)Nc2ccc(S(N)(=O)=O)cc2Cl)cc1Oc1cc(C#N)ccc1Cl [Compound I-67, 2-[3-(2-Chloro-5-cyano-phenoxy)-4-methoxy-phenyl]-N-(2-chloro-4-sulfamoyl-phenyl)-acetamide]
25 | 230.8 to 233.4 | Cc1cc(S(N)(=O)=O)ccc1NC(=O)Cc1cc(C)c(C)c(Oc2cc(Cl)cc(C#N)c2)c1 [Compound I-183, 2-[3-(3-Chloro-5-cyano-phenoxy)-4,5-dimethyl-phenyl]-N-(2-methyl-4-sulfamoyl-phenyl)-acetamide]
26 | 180.5 to 181.3 | COc1cc(CC(=O)Nc2ccc(S(N)(=O)=O)cc2)cc(Oc2cc(C#N)ccc2Cl)c1 [Compound I-102, 2-[3-(2-Chloro-5-cyano-phenoxy)-5-methoxy-phenyl]-N-(4-sulfamoyl-phenyl)-acetamide]
27 | 234.4 to 234.9 | N#Cc1cc(Cl)cc(Oc2c(Cl)ccc(CC(=O)Nc3ccc(S(N)(=O)=O)cc3Cl)c2F)c1 [Compound I-100, 2-[4-Chloro-3-(3-chloro-5-cyano-phenoxy)-2-fluoro-phenyl]-N-(2-chloro-4-sulfamoyl-phenyl)-acetamide]
28 | 116.9 to 118 | COC(=O)Cc1ccc(NC(=O)Cc2ccc(C)c(Oc3cc(Cl)cc(C#N)c3)c2)c(Cl)c1 [Compound I-235, (3-Chloro-4-{2-[3-(3-chloro-5-cyano-phenoxy)-4-methyl-phenyl]-acetylamino}-phenyl)-acetic acid methyl ester]
29 | 74.3 to 76.5 | Cc1cc(S(=O)(=O)CCC(=O)O)ccc1NC(=O)Cc1ccc(C)c(Oc2cc(Cl)cc(C#N)c2)c1 [Compound I-125, 3-(4-{2-[3-(3-Chloro-5-cyano-phenoxy)-4-methyl-phenyl]-acetylamino}-3-methyl-benzenesulfonyl)-propionic acid]
30 | 214 to 218 | N#Cc1cc(Oc2c(Cl)ccc(CC(=O)Nc3ccc(S(N)(=O)=O)cc3)c2F)cc(C(F)F)c1 [Compound I-13, 2-[4-Chloro-3-(3-cyano-5-difluoromethyl-phenoxy)-2-fluoro-phenyl]-N-(4-sulfamoyl-phenyl)-acetamide]
31 | 167.1 to 168.5 | O=C(Cc1ccc(Cl)c(C(=O)c2cc(Cl)ccc2Cl)c1)Nc1ccccc1 [Compound I-251, 2-[4-Chloro-3-(2,5-dichloro-benzoyl)-phenyl]-N-phenyl-acetamide]
32 | 224.3 to 225.7 | Cc1cc(CC(=O)Nc2ccc(S(N)(=O)=O)cc2Cl)cc(Oc2cc(Cl)cc(C#N)c2)c1C [Compound I-184, 2-[3-(3-Chloro-5-cyano-phenoxy)-4,5-dimethyl-phenyl]-N-(2-chloro-4-sulfamoyl-phenyl)-acetamide]
33 | 170.7 to 172.4 | CCc1ccc(CC(=O)Nc2ccc(S(N)(=O)=O)cc2)cc1Oc1cc(Cl)cc(C#N)c1 [Compound I-45, 2-[3-(3-Chloro-5-cyano-phenoxy)-4-ethyl-phenyl]-N-(4-sulfamoyl-phenyl)-acetamide]
34 | 219.4 to 220.2 | CC(C)[C@H](N)C(=O)NS(=O)(=O)c1ccc(NC(=O)Cc2ccc(Cl)c(Oc3cc(Cl)cc(C#N)c3)c2F)c(Cl)c1.[Na] [Compound I-127, N-[4-((S)-2-Amino-3-methyl-butyrylsulfamoyl)-2-chloro-phenyl]-2-[4-chloro-3-(3-chloro-5-cyano-phenoxy)-2-fluoro-phenyl]-acetamide; sodium salt]
35 | 197 to 199.6 | NS(=O)(=O)c1ccc(NC(=O)Cc2ccc(Cl)c(C(=O)c3cc(Cl)ccc3Cl)c2)c(Cl)c1 [Compound I-253, 2-[4-Chloro-3-(2,5-dichloro-benzoyl)-phenyl]-N-(2-chloro-4-sulfamoyl-phenyl)-acetamide]

Row | Compound | melting point [°C]
36 | Cc1cc(OCC[C@@H](O)CO)ccc1NC(=O)Cc1ccc(C)c(Oc2cc(Cl)cc(C#N)c2)c1 [Compound I-151, 2-[3-(3-Chloro-5-cyano-phenoxy)-4-methyl-phenyl]-N-[4-((R)-3,4-dihydroxy-butoxy)-2-methyl-phenyl]-acetamide] | 104.9 to 106.4
